In patent publication US10947289B2, “Glyco-modified atrial natriuretic peptide” (priority 2013, dated 2021):

Legend:
human GC-A = target: T1, human GC-A (Homo sapiens, UniProt P16066); experiment: cGMP elevating activity in CHO/human GC-A cells (Test Example 1); format: cell-based
T1 construct: expressed in transfected cells; host or cells: CHO cells
T1 sequence (P16066 33-1061): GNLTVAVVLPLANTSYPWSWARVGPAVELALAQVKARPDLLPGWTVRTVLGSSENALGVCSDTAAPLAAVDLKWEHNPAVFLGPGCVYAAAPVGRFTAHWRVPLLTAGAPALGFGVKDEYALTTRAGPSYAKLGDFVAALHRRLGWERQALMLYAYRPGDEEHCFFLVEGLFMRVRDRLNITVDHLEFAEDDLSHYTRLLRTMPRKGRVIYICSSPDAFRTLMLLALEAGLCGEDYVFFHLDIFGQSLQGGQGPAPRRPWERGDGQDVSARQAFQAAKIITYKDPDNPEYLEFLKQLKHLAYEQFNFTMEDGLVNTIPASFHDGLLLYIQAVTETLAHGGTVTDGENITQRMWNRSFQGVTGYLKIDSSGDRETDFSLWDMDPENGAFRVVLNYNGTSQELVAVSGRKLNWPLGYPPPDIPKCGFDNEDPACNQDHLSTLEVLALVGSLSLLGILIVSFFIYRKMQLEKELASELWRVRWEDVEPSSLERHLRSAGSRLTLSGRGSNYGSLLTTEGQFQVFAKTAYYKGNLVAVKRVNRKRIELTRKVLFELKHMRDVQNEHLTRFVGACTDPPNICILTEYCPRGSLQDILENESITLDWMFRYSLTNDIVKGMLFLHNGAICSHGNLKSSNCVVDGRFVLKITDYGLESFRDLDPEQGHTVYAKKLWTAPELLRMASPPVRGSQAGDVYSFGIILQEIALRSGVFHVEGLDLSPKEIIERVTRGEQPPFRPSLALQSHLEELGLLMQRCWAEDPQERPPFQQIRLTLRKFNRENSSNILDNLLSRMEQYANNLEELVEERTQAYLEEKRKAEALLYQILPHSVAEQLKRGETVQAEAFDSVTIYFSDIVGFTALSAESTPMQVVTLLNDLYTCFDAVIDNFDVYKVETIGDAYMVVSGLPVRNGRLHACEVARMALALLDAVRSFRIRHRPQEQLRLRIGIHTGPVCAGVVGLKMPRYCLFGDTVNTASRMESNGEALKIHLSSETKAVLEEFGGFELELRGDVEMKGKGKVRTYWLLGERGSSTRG
How it was run: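 CHO cells stably expressing human GC-A, pre-incubated 10 min at room temperature in 1.6 mM IBMX/KRB, then exposed to test peptide 15 min in CO2 incubator. Lysate cGMP measured by HTRF. Activity (T/C) scaled so solvent-only = 0 and 1 nM ANP = 1.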

[1] = Detection of test substance in rat plasma by LC-MS/MS (Test Example 3); format: in vivo; conditions: rat plasma, 100 nmol/kg i.v., LC-MS/MS; time at which the test substance was finally detected
How it was run: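 Jugular blood drawn before and 15–240 min after dosing; plasma spiked with stable-isotope hANP internal standard and AcOH/water/DMSO solvent, then passed through a 50K filter with the 3K-retained fraction analysed by LC-MS/MS. Value is the last time point at which test substance was detected.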

Compound | EC50 (human GC-A) | Maximum time of detection after administration [1]
CC[C@H](C)[C@@H]1NC(=O)[C@H](CCCNC(=N)N)NC(=O)[C@H](CC(=O)O)NC(=O)[C@H](CCSC)NC(=O)[C@H](CCCNC(=N)N)NC(=O)CNC(=O)CNC(=O)[C@H](Cc2ccccc2)NC(=O)[C@@H](NC(=O)[C@H](CO)NC(=O)[C@H](CO)NC(=O)[C@H](CCCNC(=N)N)NC(=O)[C@H](CCCNC(=N)N)NC(=O)[C@H](CC(C)C)NC(=O)[C@H](CO)NC(=O)CNC(=O)[C@H](CSC2CC(=O)N(CCC(=O)NCCO[C@@H]3O[C@H](CO)[C@@H](O[C@@H]4O[C@H](CO)[C@@H](O[C@@H]5O[C@H](CO[C@H]6O[C@H](CO)[C@@H](O)[C@H](O)[C@@H]6O[C@@H]6O[C@H](CO)[C@@H](O[C@@H]7O[C@H](CO[C@]8(C(=O)O)C[C@H](O)[C@@H](NC(C)=O)[C@H]([C@H](O)[C@H](O)CO)O8)[C@H](O)[C@H](O)[C@H]7O)[C@H](O)[C@H]6NC(C)=O)[C@@H](O)[C@H](O[C@H]6O[C@H](CO)[C@@H](O)[C@H](O)[C@@H]6O[C@@H]6O[C@H](CO)[C@@H](O[C@@H]7O[C@H](CO[C@]8(C(=O)O)C[C@H](O)[C@@H](NC(C)=O)[C@H]([C@H](O)[C@H](O)CO)O8)[C@H](O)[C@H](O)[C@H]7O)[C@H](O)[C@H]6NC(C)=O)[C@@H]5O)[C@H](O)[C@H]4NC(C)=O)[C@H](O)[C@H]3NC(C)=O)C2=O)NC(=O)CNC(=O)[C@H](CSC2CC(=O)N(CCC(=O)NCCO[C@@H]3O[C@H](CO)[C@@H](O[C@@H]4O[C@H](CO)[C@@H](O[C@@H]5O[C@H](CO[C@H]6O[C@H](CO)[C@@H](O)[C@H](O)[C@@H]6O[C@@H]6O[C@H](CO)[C@@H](O[C@@H]7O[C@H](CO[C@]8(C(=O)O)C[C@H](O)[C@@H](NC(C)=O)[C@H]([C@H](O)[C@H](O)CO)O8)[C@H](O)[C@H](O)[C@H]7O)[C@H](O)[C@H]6NC(C)=O)[C@@H](O)[C@H](O[C@H]6O[C@H](CO)[C@@H](O)[C@H](O)[C@@H]6O[C@@H]6O[C@H](CO)[C@@H](O[C@@H]7O[C@H](CO[C@]8(C(=O)O)C[C@H](O)[C@@H](NC(C)=O)[C@H]([C@H](O)[C@H](O)CO)O8)[C@H](O)[C@H](O)[C@H]7O)[C@H](O)[C@H]6NC(C)=O)[C@@H]5O)[C@H](O)[C@H]4NC(C)=O)[C@H](O)[C@H]3NC(C)=O)C2=O)NC(=O)CNC(=O)[C@H](CSC2CC(=O)N(CCC(=O)NCCO[C@@H]3O[C@H](CO)[C@@H](O[C@@H]4O[C@H](CO)[C@@H](O[C@@H]5O[C@H](CO[C@H]6O[C@H](CO)[C@@H](O)[C@H](O)[C@@H]6O[C@@H]6O[C@H](CO)[C@@H](O[C@@H]7O[C@H](CO[C@]8(C(=O)O)C[C@H](O)[C@@H](NC(C)=O)[C@H]([C@H](O)[C@H](O)CO)O8)[C@H](O)[C@H](O)[C@H]7O)[C@H](O)[C@H]6NC(C)=O)[C@@H](O)[C@H](O[C@H]6O[C@H](CO)[C@@H](O)[C@H](O)[C@@H]6O[C@@H]6O[C@H](CO)[C@@H](O[C@@H]7O[C@H](CO[C@]8(C(=O)O)C[C@H](O)[C@@H](NC(C)=O)[C@H]([C@H](O)[C@H](O)CO)O8)[C@H](O)[C@H](O)[C@H]7O)[C@H](O)[C@H]6NC(C)=O)[C@@H]5O)[C@H](O)[C@H]4NC(C)=O)[C@H](O)[C@H]3NC(C)=O)C2=O)NC(C)=O)CSSC[C@@H](C(=O)N[C@@H](CC(N)=O)C(=O)N[C@@H](CO)C(=O)N[C@@H](Cc2ccccc2)C(=O)N[C@@H](CCCNC(=N)N)C(=O)N[C@@H](Cc2ccc(O)cc2)C(=O)O)NC(=O)CNC(=O)[C@H](CC(C)C)NC(=O)CNC(=O)[C@H](CO)NC(=O)[C@H](CCC(N)=O)NC(=O)[C@H](C)NC(=O)CNC1=O (stereo partly drawn) [Compound 2-15, [(SG-)Cys-Gly]3-hANP(1-28)] | 3100 pM | 1.5 h
CC[C@H](C)[C@@H]1NC(=O)[C@H](CCCNC(=N)N)NC(=O)[C@H](CC(=O)O)NC(=O)[C@H](CCSC)NC(=O)[C@H](CCCNC(=N)N)NC(=O)CNC(=O)CNC(=O)[C@H](Cc2ccccc2)NC(=O)[C@@H](NC(=O)[C@H](CO)NC(=O)[C@H](CO)NC(=O)[C@H](CCCNC(=N)N)NC(=O)[C@H](CCCNC(=N)N)NC(=O)[C@H](CC(C)C)NC(=O)[C@H](CO)NC(=O)[C@H](CC(=O)N[C@@H]2O[C@H](CO)[C@@H](O[C@@H]3O[C@H](CO)[C@@H](O[C@@H]4O[C@H](CO[C@H]5O[C@H](CO)[C@@H](O)[C@H](O)[C@@H]5O[C@@H]5O[C@H](CO)[C@@H](O[C@@H]6O[C@H](CO[C@]7(C(=O)O)C[C@H](O)[C@@H](NC(C)=O)[C@H]([C@H](O)[C@H](O)CO)O7)[C@H](O)[C@H](O)[C@H]6O)[C@H](O)[C@H]5NC(C)=O)[C@@H](O)[C@H](O[C@H]5O[C@H](CO)[C@@H](O)[C@H](O)[C@@H]5O[C@@H]5O[C@H](CO)[C@@H](O[C@@H]6O[C@H](CO[C@]7(C(=O)O)C[C@H](O)[C@@H](NC(C)=O)[C@H]([C@H](O)[C@H](O)CO)O7)[C@H](O)[C@H](O)[C@H]6O)[C@H](O)[C@H]5NC(C)=O)[C@@H]4O)[C@H](O)[C@H]3NC(C)=O)[C@H](O)[C@H]2NC(C)=O)NC(=O)CCOCCOCCOCCOCCNC(=O)CO[C@@H]2O[C@H](CO)[C@@H](O[C@@H]3O[C@H](CO)[C@@H](O[C@@H]4O[C@H](CO[C@H]5O[C@H](CO)[C@@H](O)[C@H](O)[C@@H]5O[C@@H]5O[C@H](CO)[C@@H](O[C@@H]6O[C@H](CO[C@]7(C(=O)O)C[C@H](O)[C@@H](NC(C)=O)[C@H]([C@H](O)[C@H](O)CO)O7)[C@H](O)[C@H](O)[C@H]6O)[C@H](O)[C@H]5NC(C)=O)[C@@H](O)[C@H](O[C@H]5O[C@H](CO)[C@@H](O)[C@H](O)[C@@H]5O[C@@H]5O[C@H](CO)[C@@H](O[C@@H]6O[C@H](CO[C@]7(C(=O)O)C[C@H](O)[C@@H](NC(C)=O)[C@H]([C@H](O)[C@H](O)CO)O7)[C@H](O)[C@H](O)[C@H]6O)[C@H](O)[C@H]5NC(C)=O)[C@@H]4O)[C@H](O)[C@H]3NC(C)=O)[C@H](O)[C@H]2NC(C)=O)CSSC[C@@H](C(=O)N[C@@H](CC(N)=O)C(=O)N[C@@H](CO)C(=O)N[C@@H](Cc2ccccc2)C(=O)N[C@@H](CCCNC(=N)N)C(=O)N[C@@H](Cc2ccc(O)cc2)C(=O)O)NC(=O)CNC(=O)[C@H](CC(C)C)NC(=O)CNC(=O)[C@H](CO)NC(=O)[C@H](CCC(N)=O)NC(=O)[C@H](C)NC(=O)CNC1=O [Compound 2-16, SG-PEG(3)-(SG-)Asn-hANP(1-28)] | 980 pM | 2 h
CC[C@H](C)[C@@H]1NC(=O)[C@H](CCCNC(=N)N)NC(=O)[C@H](CC(=O)O)NC(=O)[C@H](CCSC)NC(=O)[C@H](CCCNC(=N)N)NC(=O)CNC(=O)CNC(=O)[C@H](Cc2ccccc2)NC(=O)[C@@H](NC(=O)[C@H](CO)NC(=O)[C@H](CO)NC(=O)[C@H](CCCNC(=N)N)NC(=O)[C@H](CCCNC(=N)N)NC(=O)[C@H](CC(C)C)NC(=O)[C@H](CO)NC(=O)CCSCC(=O)NCCO[C@@H]2O[C@H](CO)[C@@H](O[C@@H]3O[C@H](CO)[C@@H](O[C@@H]4O[C@H](CO[C@H]5O[C@H](CO)[C@@H](O)[C@H](O)[C@@H]5O[C@@H]5O[C@H](CO)[C@@H](O[C@@H]6O[C@H](CO[C@]7(C(=O)O)C[C@H](O)[C@@H](NC(C)=O)[C@H]([C@H](O)[C@H](O)CO)O7)[C@H](O)[C@H](O)[C@H]6O)[C@H](O)[C@H]5NC(C)=O)[C@@H](O)[C@H](O[C@H]5O[C@H](CO)[C@@H](O)[C@H](O)[C@@H]5O[C@@H]5O[C@H](CO)[C@@H](O[C@@H]6O[C@H](CO[C@]7(C(=O)O)C[C@H](O)[C@@H](NC(C)=O)[C@H]([C@H](O)[C@H](O)CO)O7)[C@H](O)[C@H](O)[C@H]6O)[C@H](O)[C@H]5NC(C)=O)[C@@H]4O)[C@H](O)[C@H]3NC(C)=O)[C@H](O)[C@H]2NC(C)=O)CSSC[C@@H](C(=O)N[C@@H](CC(N)=O)C(=O)N[C@@H](CO)C(=O)N[C@@H](Cc2ccccc2)C(=O)N[C@@H](CCCNC(=N)N)C(=O)N[C@@H](Cc2ccc(O)cc2)C(=O)O)NC(=O)CNC(=O)[C@H](CC(C)C)NC(=O)CNC(=O)[C@H](CO)NC(=O)[C@H](CCC(N)=O)NC(=O)[C@H](C)NC(=O)CNC1=O [Compound 2-25, SG-thioacetamide-hANP(1-28)] | 54 pM | 2 h
